Data as given in patent US7968556B2, “Heteroaryl compounds, compositions thereof, and methods of treatment therewith” (Signal Pharmaceuticals, LLC, priority 2006, dated 2011).

melting point | SMILES
363 to 365 °C | NC(=O)c1nc(-c2cccc(O)c2)nc2c1[nH]c(=O)n2-c1ccccc1C(F)(F)F [Compound 58, 2-(3-Hydroxyphenyl)-8-oxo-9-(2-(trifluoromethyl)phenyl)-8,9-dihydro-7H-purine-6-carboxamide]
> 260 °C | NC(=O)c1nc(-c2cccc(O)c2)nc2c1[nH]c(=O)n2-c1cccc2[nH]ccc12 [Compound 147, 2-(3-Hydroxyphenyl)-9-(1H-indol-4-yl)-8-oxo-8,9-dihydro-7H-purine-6-carboxamide]
270 °C | COc1ccccc1-n1c(=O)[nH]c2c(C(N)=O)nc(-c3ccc4nc(C)[nH]c4c3)nc21 [Compound 122, 9-(2-Methoxyphenyl)-2-(2-methyl-1H-benzo[d]imidazol-6-yl)-8-oxo-8,9-dihydro-7H-purine-6-carboxamide]
190 to 191 °C | COc1ccccc1-n1c(=O)[nH]c2c(C(N)=O)nc(Nc3cccc(O)c3)nc21 [Compound 45, 2-(3-Hydroxyphenylamino)-9-(2-methoxyphenyl)-8-oxo-8,9-dihydro-7H-purine-6-carboxamide]
355 to 357 °C | COc1ccc(-n2c(=O)[nH]c3c(C(N)=O)nc(-c4cccc(O)c4)nc32)c(C)c1 [Compound 57, 2-(3-Hydroxyphenyl)-9-(4-methoxy-2-methylphenyl)-8-oxo-8,9-dihydro-7H-purine-6-carboxamide]
> 270 °C | NC(=O)c1nc(-c2cccc(O)c2)nc2c1[nH]c(=O)n2-c1ccccc1C1CCCCC1 [Compound 132, 9-(2-Cyclohexylphenyl)-2-(3-hydroxyphenyl)-8-oxo-8,9-dihydro-7H-purine-6-carboxamide]
314 to 315 °C | COc1ccccc1-n1c(=O)[nH]c2c(C(N)=O)nc(Nc3ccccc3O)nc21 [Compound 56, 2-(2-Hydroxyphenylamino)-9-(2-methoxyphenyl)-8-oxo-8,9-dihydro-7H-purine-6-carboxamide]
> 260 °C | COc1ccc(F)c(-n2c(=O)[nH]c3c(C(N)=O)nc(-c4cccc(O)c4)nc32)c1 [Compound 149, 9-(2-Fluoro-5-methoxyphenyl)-2-(3-hydroxyphenyl)-8-oxo-8,9-dihydro-7H-purine-6-carboxamide]
157 to 160 °C | COc1ccccc1-n1c(=O)[nH]c2c(C(N)=O)nc(NCCO)nc21 [Compound 116, 2-(2-Hydroxyethylamino)-9-(2-methoxyphenyl)-8-oxo-8,9-dihydro-7H-purine-6-carboxamide]
316 to 318 °C | COc1ccccc1-n1c(=O)[nH]c2c(C(N)=O)nc(-c3cccc(C#N)c3)nc21 [Compound 55, 2-(3-Cyanophenyl)-9-(2-methoxyphenyl)-8-oxo-8,9-dihydro-7H-purine-6-carboxamide]
329 to 331 °C | NC(=O)c1nc(-c2cccc(O)c2)nc2c1[nH]c(=O)n2-c1ccccc1Oc1ccccc1 [Compound 126, 2-(3-Hydroxyphenyl)-8-oxo-9-(2-phenoxyphenyl)-8,9-dihydro-7H-purine-6-carboxamide]
160 to 165 °C | COc1ccccc1-n1c(=O)[nH]c2c(C(N)=O)nc(NC[C@@H]3CCCN3)nc21 [Compound 114, (S)-9-(2-Methoxyphenyl)-8-oxo-2-(pyrrolidin-2-ylmethylamino)-8,9-dihydro-7H-purine-6-carboxamide]
165 to 170 °C | COc1ccccc1-n1c(=O)[nH]c2c(C(N)=O)nc(Nc3ccc(Cn4ccnc4)cc3)nc21 [Compound 111, 2-(4-((1H-Imidazol-1-yl)methyl)phenylamino)-9-(2-methoxyphenyl)-8-oxo-8,9-dihydro-7H-purine-6-carboxamide]
244 to 245 °C | COc1ccccc1-n1c(=O)[nH]c2c(C(N)=O)nc(-c3ccc4[nH]c(SC)nc4c3)nc21 [Compound 138, 9-(2-Methoxyphenyl)-2-(2-(methylthio)-1H-benzo[d]imidazol-5-yl)-8-oxo-8,9-dihydro-7H-purine-6-carboxamide]
348 to 350 °C | COc1ccccc1-n1c(=O)[nH]c2c(C(N)=O)nc(-c3cccc(C(=O)O)c3)nc21 [Compound 62, 3-(6-Carbamoyl-9-(2-methoxyphenyl)-8-oxo-8,9-dihydro-7H-purin-2-yl)benzoic acid]
335 to 338 °C | COc1ccccc1-n1c(=O)[nH]c2c(C(N)=O)nc(-c3ccc(C#N)cc3)nc21 [Compound 59, 2-(4-Cyano-phenyl)-9-(2-methoxy-phenyl)-8-oxo-8,9-dihydro-7H-purine-6-carboxamide]

Continued, molecule first:

SMILES | melting point
NC(=O)c1nc(-c2cccc(O)c2)nc2c1[nH]c(=O)n2[C@H]1CCOC1 [Compound 163, (S)-2-(3-Hydroxyphenyl)-8-oxo-9-(tetrahydrofuran-3-yl)-8,9-dihydro-7H-purine-6-carboxamide] | 354 to 356 °C
CC(C)c1ccccc1-n1c(=O)[nH]c2c(C(N)=O)nc(-c3ccc(-c4nc[nH]n4)cc3)nc21 [Compound 121, 2-(4-(1H-1,2,4-Triazol-3-yl)phenyl)-9-(2-isopropylphenyl)-8-oxo-8,9-dihydro-7H-purine-6-carboxamide] | 368 °C
CC(C)Cn1c(=O)[nH]c2c(C(N)=O)nc(-c3cccc(O)c3)nc21 [Compound 142, 2-(3-Hydroxyphenyl)-9-isobutyl-8-oxo-8,9-dihydro-7H-purine-6-carboxamide] | 374 to 376 °C
NC(=O)c1nc(-c2cncc(Cl)c2)nc2c1[nH]c(=O)n2-c1ccccc1C(F)(F)F [Compound 103, 2-(5-Chloropyridin-3-yl)-8-oxo-9-(2-(trifluoromethyl)phenyl)-8,9-dihydro-7H-purine-6-carboxamide] | 230 to 232 °C
CO[C@H]1CC[C@@H](n2c(=O)[nH]c3c(C(N)=O)nc(-c4cnc5nc[nH]c5c4)nc32)CC1 [Compound 168, 2-(1H-Imidazo[4,5-b]pyridin-6-yl)-9-(cis-4-methoxycyclohexyl)-8-oxo-8,9-dihydro-7H-purine-6-carboxamide] | 360 °C (dec.)
COC[C@H]1CC[C@@H](n2c(=O)[nH]c3c(C(N)=O)nc(-c4cccc(O)c4)nc32)CC1 [Compound 159, 2-(3-Hydroxyphenyl)-9-(cis-4-(methoxymethyl)cyclohexyl)-8-oxo-8,9-dihydro-7H-purine-6-carboxamide] | 324 to 326 °C
NC(=O)c1nc(-c2cccc(O)c2)nc2c1[nH]c(=O)n2CC1CCCCC1 [Compound 140, 9-(Cyclohexylmethyl)-2-(3-hydroxyphenyl)-8-oxo-8,9-dihydro-7H-purine-6-carboxamide] | 368 to 370 °C
CC(C)c1ccccc1-n1c(=O)[nH]c2c(C(N)=O)nc(-c3ccc(-c4ncc[nH]4)cc3)nc21 [Compound 133, 2-(4-(1H-Imidazol-2-yl)phenyl)-9-(2-isopropylphenyl)-8-oxo-8,9-dihydro-7H-purine-6-carboxamide] | 340 °C (dec.)
NC(=O)c1nc(-c2cnc3nc[nH]c3c2)nc2c1[nH]c(=O)n2-c1ccccc1C(F)(F)F [Compound 137, 2-(1H-Imidazo[4,5-b]pyridin-6-yl)-8-oxo-9-(2-(trifluoromethyl)phenyl)-8,9-dihydro-7H-purine-6-carboxamide] | 320 °C
CO[C@H]1CC[C@@H](n2c(=O)[nH]c3c(C(N)=O)nc(-c4ccc5nc[nH]c5c4)nc32)CC1 [Compound 167, 2-(1H-Benzo[d]imidazol-6-yl)-9-(cis-4-methoxycyclohexyl)-8-oxo-8,9-dihydro-7H-purine-6-carboxamide] | 345 °C (dec.)
